Experimental data as given in PubChem BioAssay AID2060604 (Molecular Pharmacology Branch, DTP, NCI, 2025).
Where “and” joins values, the source holds several entries; their conditions need not be identical. Equal entries are not always repeated.

Test system: 379773-124-R-J2-PDC complex spheroids, viability % test/control
Assay: Anticancer human tumor 379773-124-R-J2-PDC patient-derived endometrial carcinoma cell line growth inhibition [CLK]
Conditions: for viability, T/C: stronger effect = lower value
How it was run: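 Multi-cell-type spheroids combined patient-derived tumor cells with HUVEC endothelial cells and human mesenchymal stem cells. Paired agents were dosed in half-log steps down from about clinical Cmax, or from 10 microM where Cmax was unknown.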

[1] = curve of first compound, second compound 0.0316 µM
[2] = curve of first compound, second compound 0.1 µM
[3] = curve of first compound, second compound 0.316 µM
[4] = curve of first compound, second compound 1 µM
[5] = curve of first compound, second compound 3.16 µM
[6] = curve of first compound, second compound 10 µM
[7] = second compound 0.0316 µM, first compound 0.0316 µM
[8] = second compound 0.0316 µM, first compound 0.1 µM
[9] = second compound 0.0316 µM, first compound 0.316 µM
[10] = second compound 0.0316 µM, first compound 1 µM
[11] = second compound 0.0316 µM, first compound 3.16 µM
[12] = second compound 0.0316 µM, first compound 10 µM
[13] = second compound 0.1 µM, first compound 0.0316 µM
[14] = second compound 0.1 µM, first compound 0.1 µM
[15] = second compound 0.1 µM, first compound 0.316 µM
[16] = second compound 0.1 µM, first compound 1 µM
[17] = second compound 0.1 µM, first compound 3.16 µM
[18] = second compound 0.1 µM, first compound 10 µM
[19] = second compound 0.316 µM, first compound 0.0316 µM
[20] = second compound 0.316 µM, first compound 0.1 µM
[21] = second compound 0.316 µM, first compound 0.316 µM
[22] = second compound 0.316 µM, first compound 1 µM
[23] = second compound 0.316 µM, first compound 3.16 µM
[24] = second compound 0.316 µM, first compound 10 µM
[25] = second compound 1 µM, first compound 0.0316 µM
[26] = second compound 1 µM, first compound 0.1 µM
[27] = second compound 1 µM, first compound 0.316 µM
[28] = second compound 1 µM, first compound 1 µM
[29] = second compound 1 µM, first compound 3.16 µM
[30] = second compound 1 µM, first compound 10 µM
[31] = second compound 3.16 µM, first compound 0.0316 µM
[32] = second compound 3.16 µM, first compound 0.1 µM
[33] = second compound 3.16 µM, first compound 0.316 µM
[34] = second compound 3.16 µM, first compound 1 µM
[35] = second compound 3.16 µM, first compound 3.16 µM
[36] = second compound 3.16 µM, first compound 10 µM
[37] = second compound 10 µM, first compound 0.0316 µM
[38] = second compound 10 µM, first compound 0.1 µM
[39] = second compound 10 µM, first compound 0.316 µM
[40] = second compound 10 µM, first compound 1 µM
[41] = second compound 10 µM, first compound 3.16 µM
[42] = second compound 10 µM, first compound 10 µM
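Further: compound exposure lasted seven days before the viability readout.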
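Wherever viability, T/C is given: 100% = DMSO vehicle control wells.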

## COC1C=CCC(C)C(C)S(=O)(=O)NC(=O)c2ccc3c(c2)N(CC2CCC21)CC1(CCCc2cc(Cl)ccc21)CO3 (stereo unspecified) + CNC(=O)c1ccc(Nc2nc(OC3CCCC3)c3c(-c4ccc5nc(C)oc5c4)c[nH]c3n2)c(OC)c1
[1]
  IC50: 5290 nM
[2]
  IC50: < 31.6 nM
[3]
  IC50: < 31.6 nM
[4]
  IC50: < 31.6 nM
[5]
  IC50: < 31.6 nM
[6]
  IC50: < 31.6 nM
[7]
  viability, T/C: 85.2%
[8]
  viability, T/C: 82.8%
[9]
  viability, T/C: 90.5%
[10]
  viability, T/C: 90%
[11]
  viability, T/C: 90%
[12]
  viability, T/C: 3.4%
[13]
  viability, T/C: 41.3%
[14]
  viability, T/C: 35.1%
[15]
  viability, T/C: 33.8%
[16]
  viability, T/C: 29.2%
[17]
  viability, T/C: 37%
[18]
  viability, T/C: 3.05%
[19]
  viability, T/C: 37.3%
[20]
  viability, T/C: 39.6%
[21]
  viability, T/C: 30.1%
[22]
  viability, T/C: 20.1%
[23]
  viability, T/C: 20.5%
[24]
  viability, T/C: 2.22%
[25]
  viability, T/C: 36.4%
[26]
  viability, T/C: 36.4%
[27]
  viability, T/C: 25.6%
[28]
  viability, T/C: 20.1%
[29]
  viability, T/C: 18.1%
[30]
  viability, T/C: 2.26%
[31]
  viability, T/C: 31.5%
[32]
  viability, T/C: 33.8%
[33]
  viability, T/C: 23.3%
[34]
  viability, T/C: 18.4%
[35]
  viability, T/C: 13%
[36]
  viability, T/C: 1.56%
[37]
  viability, T/C: 35.1%
[38]
  viability, T/C: 42.5%
[39]
  viability, T/C: 30.4%
[40]
  viability, T/C: 21.6%
[41]
  viability, T/C: 11.7%
[42]
  viability, T/C: 1.66%

## O=c1[nH]cc(F)c(=O)[nH]1
Compound 0.0316 µM
  viability, T/C: 90.7% and 97.5%
Compound 0.1 µM
  viability, T/C: 107% and 93.2%
Compound 0.316 µM
  viability, T/C: 91.5% and 98.6%
Compound 1 µM
  viability, T/C: 97.5% and 100%
Compound 3.16 µM
  viability, T/C: 70.2% and 81.4%
Compound 10 µM
  viability, T/C: 50.9% and 73.7%
Curve of compound
  IC50: > 10000 nM

## NC(=O)C(=Cn1cnc(-c2cc(C(F)(F)F)cc(C(F)(F)F)c2)n1)c1cncnc1
Compound 0.00949 µM
  viability, T/C: 83.8% and 85.3%
Compound 0.03 µM
  viability, T/C: 74.8% and 59.7%
Compound 0.0949 µM
  viability, T/C: 41.1% and 33.7%
Compound 0.3 µM
  viability, T/C: 19.5% and 14.4%
Compound 0.949 µM
  viability, T/C: 13.9% and 7.66%
Compound 3 µM
  viability, T/C: 4.42% and 2.99%
Curve of compound
  IC50: 72.6 nM and 45.9 nM

## CC(Nc1ccc2c(c1)OCCn1cc(N3C(=O)OCC3C(F)F)nc1-2)C(N)=O (stereo unspecified)
Compound 0.0316 µM
  viability, T/C: 84.9% and 92.7%
Compound 0.1 µM
  viability, T/C: 93.1% and 85.8%
Compound 0.316 µM
  viability, T/C: 93.5% and 79.4%
Compound 1 µM
  viability, T/C: 79% and 87.4%
Compound 3.16 µM
  viability, T/C: 77.1% and 78.5%
Compound 10 µM
  viability, T/C: 69.1% and 67.6%
Curve of compound
  IC50: > 10000 nM

## COc1c(OCCCN2CCOCC2)ccc2c3n(c(=NC(=O)c4cnc(N)nc4)nc12)CCN3
Compound 0.00316 µM
  viability, T/C: 85.3% and 98.5%
Compound 0.01 µM
  viability, T/C: 91.9% and 72.6%
Compound 0.0316 µM
  viability, T/C: 73.5% and 69.3%
Compound 0.1 µM
  viability, T/C: 43.4% and 40.3%
Compound 0.316 µM
  viability, T/C: 15.3% and 12.2%
Compound 1 µM
  viability, T/C: 4.52% and 3.3%
Curve of compound
  IC50: 78.7 nM and 58.8 nM

## Nc1ccccc1NC(=O)c1ccc(CNC(=O)OCc2cccnc2)cc1 + CN1CCN(c2cc(C(=O)Nc3cc4cc(-c5cnn(C)c5)ccc4cn3)ccn2)CC1
[1]
  IC50: 3110 nM
[2]
  IC50: 1970 nM
[3]
  IC50: < 31.6 nM
[4]
  IC50: < 31.6 nM
[5]
  IC50: < 31.6 nM
[6]
  IC50: < 31.6 nM
[7]
  viability, T/C: 89.8%
[8]
  viability, T/C: 92.6%
[9]
  viability, T/C: 113%
[10]
  viability, T/C: 104%
[11]
  viability, T/C: 49.1%
[12]
  viability, T/C: 10.4%
[13]
  viability, T/C: 82.2%
[14]
  viability, T/C: 81%
[15]
  viability, T/C: 111%
[16]
  viability, T/C: 66.2%
[17]
  viability, T/C: 36%
[18]
  viability, T/C: 5.29%
[19]
  viability, T/C: 21.2%
[20]
  viability, T/C: 27.6%
[21]
  viability, T/C: 17.5%
[22]
  viability, T/C: 13.2%
[23]
  viability, T/C: 4.61%
[24]
  viability, T/C: 0.06%
[25]
  viability, T/C: 0.13%
[26]
  viability, T/C: 0.25%
[27]
  viability, T/C: 0.3%
[28]
  viability, T/C: 1.14%
[29]
  viability, T/C: 0.04%
[30]
  viability, T/C: 0.92%
[31]
  viability, T/C: 0.08%
[32]
  viability, T/C: 0.1%
[33]
  viability, T/C: 0.08%
[34]
  viability, T/C: 1.25%
[35]
  viability, T/C: 0.1%
[36]
  viability, T/C: 0.09%
[37]
  viability, T/C: 0.15%
[38]
  viability, T/C: 0.81%
[39]
  viability, T/C: 0.62%
[40]
  viability, T/C: 1.15%
[41]
  viability, T/C: 1.4%
[42]
  viability, T/C: 0.15%

## COc1cccc2c1C(=O)c1c(O)c3c(c(O)c1C2=O)CC(O)(C(=O)CO)CC3OC1CC(N)C(O)C(C)O1 (stereo unspecified) + CNC(=O)c1ccc(Nc2nc(OC3CCCC3)c3c(-c4ccc5nc(C)oc5c4)c[nH]c3n2)c(OC)c1
[1]
  IC50: < 31.6 nM
[2]
  IC50: < 31.6 nM
[3]
  IC50: < 31.6 nM
[4]
  IC50: < 31.6 nM
[5]
  IC50: < 31.6 nM
[6]
  IC50: < 31.6 nM
[7]
  viability, T/C: 31.1%
[8]
  viability, T/C: 6.01%
[9]
  viability, T/C: 5.35%
[10]
  viability, T/C: 3.7%
[11]
  viability, T/C: 0.43%
[12]
  viability, T/C: 0.22%
[13]
  viability, T/C: 22.6%
[14]
  viability, T/C: 6.93%
[15]
  viability, T/C: 5.94%
[16]
  viability, T/C: 3.46%
[17]
  viability, T/C: 0.36%
[18]
  viability, T/C: 0.17%
[19]
  viability, T/C: 25.9%
[20]
  viability, T/C: 4.93%
[21]
  viability, T/C: 3.63%
[22]
  viability, T/C: 2.73%
[23]
  viability, T/C: 0.13%
[24]
  viability, T/C: 0.11%
[25]
  viability, T/C: 17.8%
[26]
  viability, T/C: 4.68%
[27]
  viability, T/C: 3.73%
[28]
  viability, T/C: 1.18%
[29]
  viability, T/C: 0.15%
[30]
  viability, T/C: 0.06%
[31]
  viability, T/C: 12%
[32]
  viability, T/C: 5.12%
[33]
  viability, T/C: 3.67%
[34]
  viability, T/C: 1.27%
[35]
  viability, T/C: 0.08%
[36]
  viability, T/C: 0.12%
[37]
  viability, T/C: 9.36%
[38]
  viability, T/C: 5.57%
[39]
  viability, T/C: 3.11%
[40]
  viability, T/C: 1.07%
[41]
  viability, T/C: 0.14%
[42]
  viability, T/C: 0.23%

## CCc1c2c(nc3ccc(O)cc13)-c1cc3c(c(=O)n1C2)COC(=O)[C@]3(O)CC
Compound 0.00316 µM
  viability, T/C: 24.2% and 20.4%
Compound 0.01 µM
  viability, T/C: 8.01% and 6.62%
Compound 0.0316 µM
  viability, T/C: 5.03% and 4.19%
Compound 0.1 µM
  viability, T/C: 2.77% and 1.93%
Compound 0.316 µM
  viability, T/C: 0.94% and 0.86%
Compound 1 µM
  viability, T/C: 0.57% and 0.46%
Curve of compound
  IC50: < 3.16 nM
